Source: patent publication US4940789A, “10,11-dihydro-5-alkyl-12-substituted-10,5-(iminomethano)-5H-d ibenzo[a,d]cycloheptenes as neuroprotectant agents” (priority 1989, dated 1990)
Like-named read-outs stand apart in the source and are kept apart here.

Tests used:
NMDA-induced lethality = NMDA-induced lethality in mice (survival; standard experimental test procedure); format: in vivo, male Swiss-albino mice (CD-1 strain); conditions: for ED50 Inhibition of NMDA-Induced Lethality, I.P. (dose required to produce 50% survival rate) / ED50: NMDA 195 mg/kg i.p., 30 min pretreatment; for Percent of animals which survived at the dose indicated (NMDA-induced lethality): I.P.; for Relative potency, antagonism of NMDA-induced lethality vs ataxia (in words): traction reflex deficit model; for ED50: Mus musculus, 0.5 h; for IP/PO Ratio: ED50 inhibition of NMDA-induced lethality, I.P. over P.O.
Method: The mice were pretreated with the representative test compounds followed thirty minutes later with NMDA (195 mg/kg, i.p., the ED90 dose for generalized myoclonus). The mice were then observed for 30 minutes, noting the latency of onset of generalized myoclonus (uncontrollable hind leg scratching or limbs and/or torso muscle jerking with loss of righting reflex) and death. From the latter, the ED50 for survival is determined. In this standard experimental test procedure, the specific compounds tested and their activity, which representatively establish the activity for all the compounds herein, is presented in Table I as follows: […]

[1] = Traction reflex deficit (ataxia) in mice; conditions: mouse, in vivo, ip, I.P., read-out: TD50 - Traction Reflex Deficit, I.P. (dose which produced the deficit in 50% of animals tested)
Text: In fact, the separation between a compounds's NMDA-antagonist activity and ataxic activity (often expressed as an "efficacy ratio" of the ED50 's of these two activities) has been extensively used to evaluate its therapeutic usefulness versus its liabilities.
^@ As measured in mice. Defined as the dose which produced the defici

[2] = system: cell death in cerebral ischemia models; conditions: result in words; cited from earlier work
[3] = system: high-affinity PCP binding site in the NMDA-associated ion channel; conditions: result in words; cited from earlier work
[4] = result in words; cited from earlier work
[5] = ip, intraperitoneal injection, read-out: ED50 Inhibition of NMDA-Induced Lethality, I.P. (dose required to produce 50% survival rate)

CN1CC[C@@]23CCCC[C@@H]2[C@@H]1Cc1ccc(O)cc13 [Dextrorphan, dextrorphan, reference compound]
Efficacy ratio for antagonizing NMDA-induced lethality over ataxia (in words) (NMDA-induced lethality; comparison with reference NMDA antagonists): essentially the same as that for dextromethorphan | ED50 Inhibition of NMDA-Induced Lethality, I.P. (dose required to produce 50% survival rate) (NMDA-induced lethality; intraperitoneal injection): 13 mg/kg | TD50 [1]: 29 mg/kg

CC12CN(Cc3ccccn3)C(Cc3ccccc31)c1ccccc12 (stereo not shown) [Example 6, 10,11-Dihydro-5-methyl-12-(2-pyridinylmethyl)-10,5-(iminomethano)-5H-dibenzo[a,d]cycloheptene]
Percent of animals which survived at the dose indicated (NMDA-induced lethality) (NMDA-induced lethality; at 20 mg/kg): 66%

CN(C)CCCN1CC2(C)c3ccccc3CC1c1ccccc12 (stereo not shown) [Example 5, 10,11-Dihydro-N,N,5-trimethyl-10,5-(iminomethano)-5H-dibenzo[a,d]cycloheptene-12-propanamine]
Percent of animals which survived at the dose indicated (NMDA-induced lethality) (NMDA-induced lethality; at 100 mg/g (so in the source)): 66%

c1ccc(C2(N3CCCCC3)CCCCC2)cc1 [PCP, phencyclidine, reference compound]
ED50 Inhibition of NMDA-Induced Lethality, I.P. (dose required to produce 50% survival rate) (NMDA-induced lethality; intraperitoneal injection): 1.9 mg/kg | Relative potency, antagonism of NMDA-induced lethality vs ataxia (in words) (NMDA-induced lethality): approximately equipotent | TD50 [1]: 2.7 mg/kg | Protection against cell death in cerebral ischemia models [2]: protects against cell death in cerebral ischemia models

CC(=O)N1CC2(C)c3ccccc3CC1c1ccccc12 (stereo not shown) [Example 11, 10,11-Dihydro-5-methyl-10,5-(iminomethano)-5H-dibenzo[a,d]cycloheptene-12-acetamide]
Percent of animals which survived at the dose indicated (NMDA-induced lethality) (NMDA-induced lethality; at 10 mg/kg): 10%

CC12CN(CCc3ccc4ccccc4n3)C(Cc3ccccc31)c1ccccc12 (stereo not shown) [Example 7, 10,11-Dihydro-5-methyl-12-[2-(2-quinolinyl)ethyl]-10,5-(iminomethano)-5H-dibenzo[a,d]cycloheptene]
ED50 (NMDA-induced lethality; [5]): > 20 mg/kg

Cc1cccc(CCN2CC3(C)c4ccccc4CC2c2ccccc23)n1 (stereo not shown) [Example 8, 10,11-Dihydro-5-methyl-12-[2-(6-methyl-2-pyridinyl)ethyl]-10,5-(iminomethano)-5H-dibenzo[a,d]cycloheptene]
ED50 (NMDA-induced lethality; [5]): 13 mg/kg | TD50 [1]: 68 mg/kg

CC(C)N1CC2(C)c3ccccc3CC1c1ccccc12 (stereo not shown) [Example 10, 10,11-Dihydro-5-methyl-12-(2-propyl)-10,5-(iminomethano)-5H-dibenzo[a,d]cycloheptene]
Percent of animals which survived at the dose indicated (NMDA-induced lethality) (NMDA-induced lethality; at 10 mg/kg): 100%

CC12CN(CCc3cnccn3)C(Cc3ccccc31)c1ccccc12 (stereo not shown) [Example 4, 10,11-Dihydro-5-methyl-12-(2-pyrazinylethyl)-10,5-(iminomethano)-5H-dibenzo-cycloheptene]
ED50 (NMDA-induced lethality; [5]): 12 mg/kg | TD50 [1]: 30 mg/kg

CC12CN(CCc3ccccn3)C(Cc3ccccc31)c1ccccc12 (stereo not shown) [Example 2, 10,11-Dihydro-5-methyl-12-[2-(2-pyridinyl)ethyl]10,5-(iminomethano)-5H-dibenzo[a,d]cycloheptene]
IP/PO Ratio (NMDA-induced lethality): 0.57 | ED50 (NMDA-induced lethality; [5]): 9.8 mg/kg | TD50 [1]: 67 mg/kg

CN1CC2(C)c3ccccc3CC1c1ccccc12 (stereo not shown) [Example 1, 10,11-Dihydro-5,12-dimethyl-10,5-(iminomethano)-5H-dibenzo[a,d]cycloheptene]
ED50 (NMDA-induced lethality; [5]): 3.1 mg/kg | TD50 [1]: 13 mg/kg

CC12CN(CCc3ccncc3)C(Cc3ccccc31)c1ccccc12 (stereo not shown) [Example 3, 10,11-Dihydro-5-methyl-12-[2-(4-pyridinyl)ethyl]10,5-(iminomethano)-5H-dibenzo[a,d]cycloheptene]
ED50 (NMDA-induced lethality; [5]): 18 mg/kg | TD50 [1]: 83 mg/kg

COc1ccc2c(c1)[C@]13CCCC[C@@H]1[C@H](C2)N(C)CC3 [Dextromethorphan, reference compound]
ED50 (NMDA-induced lethality; [5]): 21 mg/kg | TD50 [1]: 45 mg/kg

CC12CN(CCc3ccccc3)C(Cc3ccccc31)c1ccccc12 (stereo not shown) [Example 9, 10,11-Dihydro-5-methyl-12-(2-phenylethyl)-10,5-(iminomethano)-5H-dibenzo[a,d]cycloheptene]
Percent of animals which survived at the dose indicated (NMDA-induced lethality) (NMDA-induced lethality; at 20 mg/kg): 17%

C[C@]12N[C@H](Cc3ccccc31)c1ccccc12 [MK-801, reference compound]
IP/PO Ratio (NMDA-induced lethality): 0.58 | ED50 (NMDA-induced lethality; oral administration, read-out: ED50 Inhibition of NMDA-Induced Lethality, P.O. (dose required to produce 50% survival rate)): 0.32 mg/kg | ED50 (NMDA-induced lethality; [5]): 0.19 mg/kg | Relative potency, antagonism of NMDA-induced lethality vs ataxia (in words) (NMDA-induced lethality): no separation | TD50 [1]: 0.17 mg/kg | Competition for the high-affinity PCP binding site [3]: competes for the high-affinity PCP binding site | Protection against cell death in cerebral ischemia models [2]: protects against cell death in cerebral ischemia models | Generalization for PCP in drug discrimination [4]: generalizes for PCP
